We go through 43 molecules from ChEMBL document CHEMBL3351272, “Sequential synthesis of amino-1,4-naphthoquinone-appended triazoles and triazole-chromene hybrids and their antimycobacterial evaluation” (Eur J Med Chem, 2014).

Experiment [1] relates to Mycobacterium tuberculosis. Kind of experiment: Antimycobacterial activity against Mycobacterium tuberculosis H37Rv assessed as growth inhibition by microdilution AlamarBlue broth assay. In kind it is functional, organism-based.
For experiment [2], the system named is Mycobacterium tuberculosis. The experiment can be described thus: Ratio of cycloserine IC50 to compound IC50 for Mycobacterium tuberculosis H37Rv assessed as growth inhibition by microdilution AlamarBlue broth assay. In kind it is functional. A general note: Broth dilution looks for growth in wells or tubes with falling amounts of substance.
Experiment [3] relates to Mycobacterium tuberculosis. Kind of experiment: Ratio of pyrimethamine IC50 to compound IC50 for Mycobacterium tuberculosis H37Rv assessed as growth inhibition by microdilution AlamarBlue broth assay. In kind it is functional.

As to `N#CCn1cc(CN(C2=CC(=O)c3ccccc3C2=O)c2ccccc2Cl)nn1`, in experiment [1], the IC50 (as a rule, the concentration at which inhibition is half-maximal) came out at 11.2 µM; the IC90 (commonly the point of the concentration-response curve where the effect stands at 90%) is 25.9 µM; the MIC – broadly, the smallest concentration in the dilution series that meets the test's criterion for growth inhibition – was determined as 50 µM.
`N#CCn1cc(CN(C2=CC(=O)c3ccccc3C2=O)c2ccc(F)cc2)nn1`: in experiment [1], the IC50 came to 2.81 µM, the IC90 turned out to be 6.13 µM and the MIC turned out to be 15 µM.
Take `COc1cccc(N(Cc2cn(CC#N)nn2)C2=CC(=O)c3ccccc3C2=O)c1`: in experiment [1], the IC50 worked out at 16.3 µM, the IC90 was determined as 25.5 µM and the minimum inhibitory concentration (MIC) amounted to 50 µM.
Turning to `Cc1ccccc1N(Cc1cn(CC#N)nn1)C1=CC(=O)c2ccccc2C1=O`, in experiment [1], the IC50 stood at 10.6 µM, the IC90 is 19.8 µM and the MIC is 50 µM.
With `N#CCn1cc(CN(C2=CC(=O)c3ccccc3C2=O)c2ccccc2)nn1`, in experiment [1], the IC50 was 9.95 µM, the IC90 was 21.9 µM and the MIC came to 25 µM.
In the case of `CCOC(=O)Cn1cc(CN(C2=CC(=O)c3ccccc3C2=O)c2ccc(C)cc2)nn1`, in experiment [1], the half-maximal inhibitory concentration (IC50) is 11.9 µM, the IC90 is 27.9 µM and the MIC was found to be 50 µM.
With `CCOC(=O)Cn1cc(CN(C2=CC(=O)c3ccccc3C2=O)c2ccc(Br)cc2)nn1`, in experiment [1], the IC50 is 8.46 µM, the IC90 was found to be 16.4 µM and the MIC stood at 25 µM.
`CCOC(=O)Cn1cc(CN(C2=CC(=O)c3ccccc3C2=O)c2ccc(Cl)cc2)nn1`: in experiment [1], the IC50 stood at 3.28 µM, the IC90 was determined as 7.86 µM and the MIC is 25 µM.
For the molecule `CCOC(=O)Cn1cc(CN(C2=CC(=O)c3ccccc3C2=O)c2ccc(F)cc2)nn1`, in experiment [1], the IC50 is 17.2 µM, the IC90 was determined as 36.5 µM and the minimal inhibitory concentration (MIC) stood at 50 µM.
With `CCOC(=O)Cn1cc(CN(C2=CC(=O)c3ccccc3C2=O)c2cccc(OC)c2)nn1`, in experiment [1], the IC50 is 18.6 µM, the 90% effect concentration (IC90) was found to be 27.7 µM and the MIC came out at 50 µM.
For the molecule `CCOC(=O)Cn1cc(CN(C2=CC(=O)c3ccccc3C2=O)c2ccccc2Cl)nn1`, in experiment [1], the IC50 amounted to 18.3 µM, the IC90 came to 36.5 µM and the MIC came out at 50 µM.
As to `C=CCn1cc(CN(C2=CC(=O)c3ccccc3C2=O)c2ccc(Cl)cc2)nn1`, in experiment [1], the IC50 came to 21.6 µM, the IC90 is 45.1 µM and the MIC was found to be 50 µM.
The matching figures for `C=CCn1cc(CN(C2=CC(=O)c3ccccc3C2=O)c2ccc(F)cc2)nn1`: 5.87 µM, 14.6 µM and 25 µM.
For `C=CCn1cc(CN(C2=CC(=O)c3ccccc3C2=O)c2cccc(OC)c2)nn1`, in experiment [1], the IC50 turned out to be 24.9 µM, the IC90 came out at 36.4 µM and the minimal inhibitory concentration (MIC) worked out at 50 µM.
As to `C=CCn1cc(CN(C2=CC(=O)c3ccccc3C2=O)c2ccccc2C)nn1`, in experiment [1], the IC50 was determined as 15.3 µM, the IC90 came out at 34.3 µM and the MIC was determined as 50 µM.
On the same counts, the results for `C=CCn1cc(CN(C2=CC(=O)c3ccccc3C2=O)c2ccccc2Cl)nn1` are 6.38 µM, 12 µM and 25 µM.
The matching figures for `C=CCn1cc(CN(C2=CC(=O)c3ccccc3C2=O)c2ccccc2)nn1`: 25.5 µM, 55.4 µM and 100 µM.
For `Cc1ccc(N(Cc2cn(Cc3ccccc3)nn2)C2=CC(=O)c3ccccc3C2=O)cc1`, in experiment [1], the IC50 amounted to 17 µM, the IC90 worked out at 38.9 µM and the MIC was 50 µM.
The matching figures for `O=C1C=C(N(Cc2cn(Cc3ccccc3)nn2)c2ccc(Br)cc2)C(=O)c2ccccc21`: 28.7 µM, 47.9 µM and 100 µM.
The matching figures for `O=C1C=C(N(Cc2cn(Cc3ccccc3)nn2)c2ccc(Cl)cc2)C(=O)c2ccccc21`: 2.58 µM, 15.1 µM and 25 µM.
On to `COc1cccc(N(Cc2cn(Cc3ccccc3)nn2)C2=CC(=O)c3ccccc3C2=O)c1`, for which, in experiment [1], the IC50 was 24.9 µM, the concentration for an effect of 90% (IC90) was determined as 36.4 µM and the MIC turned out to be 50 µM.
Take `O=C1C=C(N(Cc2cn(Cc3ccccc3)nn2)c2ccccc2Cl)C(=O)c2ccccc21`: in experiment [1], the IC50 was determined as 15.3 µM, the IC90 stood at 44.3 µM and the MIC stood at 50 µM.
The matching figures for `O=C1C=C(N(Cc2cn(Cc3ccccc3)nn2)c2ccc(Cl)cc2Cl)C(=O)c2ccccc21`: 5.38 µM, 9.97 µM and 25 µM.
With `Cc1ccc(N(Cc2cn(CC(=O)c3ccccc3)nn2)C2=CC(=O)c3ccccc3C2=O)cc1`, in experiment [1], the IC50 was found to be 14 µM, the IC90 amounted to 28.9 µM and the MIC came to 50 µM.
For the molecule `Cc1ccccc1N(Cc1cn(CC(=O)c2ccccc2)nn1)C1=CC(=O)c2ccccc2C1=O`, in experiment [1], the IC50 turned out to be 19.1 µM, the IC90 stood at 37.9 µM and the MIC worked out at 50 µM.
Consider `O=C(Cn1cc(CN(C2=CC(=O)c3ccccc3C2=O)c2ccc(Cl)cc2Cl)nn1)c1ccccc1`, for which, in experiment [1], the IC50 was determined as 13.3 µM, the IC90 was determined as 27.9 µM and the MIC was 50 µM.
On the same counts, the results for `Cc1ccc(N(Cc2cn(C3=CC(=O)c4ccccc4C3=O)nn2)C2=CC(=O)c3ccccc3C2=O)cc1` are 28.6 µM, 37.7 µM and 50 µM.
Take `O=C1C=C(N(Cc2cn(C3=CC(=O)c4ccccc4C3=O)nn2)c2ccc(Br)cc2)C(=O)c2ccccc21`: in experiment [1], the IC50 was 19.2 µM, the IC90 came out at 46.5 µM and the MIC is 50 µM.
Take `O=C1C=C(N(Cc2cn(C3=CC(=O)c4ccccc4C3=O)nn2)c2ccc(Cl)cc2)C(=O)c2ccccc21`: in experiment [1], the IC50 came to 7.2 µM, the IC90 was determined as 16.5 µM and the MIC is 25 µM.
On to `Cc1ccc(N(Cc2cn(-c3cc4ccccc4oc3=N)nn2)C2=CC(=O)c3ccccc3C2=O)cc1`, for which, in experiment [1], the IC50 was 23.9 µM, the IC90 stood at 47.6 µM and the MIC amounted to 50 µM.
Turning to `N=c1oc2ccccc2cc1-n1cc(CN(C2=CC(=O)c3ccccc3C2=O)c2ccc(F)cc2)nn1`, in experiment [1], the IC50 was found to be 8.57 µM, the IC90 stood at 17.7 µM and the MIC was determined as 25 µM.
`COc1cccc(N(Cc2cn(-c3cc4ccccc4oc3=N)nn2)C2=CC(=O)c3ccccc3C2=O)c1`: in experiment [1], the IC50 was found to be 18.6 µM, the IC90 came out at 37.7 µM and the minimum inhibitory concentration (MIC) came to 50 µM.
On the same counts, the results for `N=c1oc2ccccc2cc1-n1cc(CN(C2=CC(=O)c3ccccc3C2=O)c2ccccc2Cl)nn1` are 27.2 µM, 36.5 µM and 50 µM.
`Cc1ccc(N(Cc2cn(-c3cc4ccccc4oc3=N)nn2)C2=CC(=O)c3ccccc3C2=O)c(C)c1`: in experiment [1], the IC50 turned out to be 21.6 µM, the IC90 worked out at 55.1 µM and the MIC came out at 100 µM.
On the same counts, the results for `Cc1ccc(N(Cc2cn(-c3cc4cc(Br)ccc4oc3=N)nn2)C2=CC(=O)c3ccccc3C2=O)cc1` are 21.9 µM, 44.6 µM and 100 µM.
On to `N=c1oc2ccc(Cl)cc2cc1-n1cc(CN(C2=CC(=O)c3ccccc3C2=O)c2ccc(F)cc2)nn1`, for which, in experiment [1], the IC50 came to 3.18 µM, the IC90 worked out at 9.86 µM and the MIC turned out to be 25 µM.
`Cc1ccc2oc(=N)c(-n3cc(CN(C4=CC(=O)c5ccccc5C4=O)c4ccccc4)nn3)cc2c1`: in experiment [1], the IC50 worked out at 18.6 µM, the IC90 came to 27.7 µM and the MIC is 50 µM.
In the case of `O=C1C=C(N(Cc2cn(Cc3ccccc3)nn2)c2ccc(C(F)(F)F)cc2)C(=O)c2ccccc21`, in experiment [1], the IC50 was found to be 1.87 µM, the IC90 amounted to 4.6 µM and the MIC was found to be 10 µM. Further, the “Ratio IC50” value in experiment [2] is 6. The “Ratio IC50” value in experiment [3] is 20.
`NCC[C@H](O)C(=O)N[C@@H]1C[C@H](N)[C@@H](O[C@H]2O[C@H](CN)[C@@H](O)[C@H](O)[C@H]2O)[C@H](O)[C@H]1O[C@H]1O[C@H](CO)[C@@H](O)[C@H](N)[C@H]1O` [AMIKACIN]: in experiment [1], the IC90 is 0.08 µM and the MIC was found to be 0.16 µM.
Regarding `N[C@@H]1CONC1=O` [CYCLOSERINE], the MIC in experiment [1] was 25 µM.
For the molecule `CC[C@@H](CO)NCCN[C@@H](CC)CO` [ETHAMBUTOL], in experiment [1], the IC50 is < 1.56 µM and the MIC was 12.5 µM.
In the case of `NNC(=O)c1ccncc1` [ISONIAZID], in experiment [1], the IC90 amounted to 0.29 µM and the MIC was found to be 0.31 µM.
In the case of `CCc1nc(N)nc(N)c1-c1ccc(Cl)cc1` [PYRIMETHAMINE], in experiment [1], the IC50 stood at 37.4 µM, the IC90 was found to be 75 µM and the MIC turned out to be 100 µM.
